In patent US20180021303A1, “BKCA CHANNEL ACTIVATOR FOR TREATING MUSCULAR DISORDER” (Canbex Therapeutics Limited, priority 2015, published 2018):

Tests used:
[1] = test system: Biozzi ABH mice with visible spasticity (relapsing progressive experimental autoimmune encephalomyelitis); assay: Spasticity (limb stiffness against a strain gauge) in Biozzi ABH mice with relapsing progressive experimental autoimmune encephalomyelitis; format: in vivo, mouse; details: result in words
Experimental: BMS 204352 and NS 1619 were dissolved in ethanol:cremophor:phosphate buffered saline 1:1:18. […] Paxilline was used at 1 mg/kg, just below doses reported to cause tremors in mice.
Biozzi ABH were injected with mouse spinal cord homogenate in Freunds adjuvant on day 0 and day 7 based on published protocols (Al-Izki S. et al. Mult Scler Rel Dis. 2012; 1: 29-38 and relapsing progressive experimental autoimmune encephalomyelitis developed. Following the development of visible spasticity animals were randomly allocated to treatment groups and spasticity was assessed by measuring limb stiffness against a strain guage (Pryce G. et al. FASEB J. 28: 2014; 117-130).
Animals were injected with: • BMS 204352: 20 mg/kg i.p. n=11 (FIG. 1; Table 2); • NS 1619: 10 mg/kg i.p. n=13 (FIG. 2; Table 1); • NS 11021: 10 mg/kg i.p. n=13 (FIG. 3; Table 3) in ethanol:cremophor:PBS (1:1:18).

[2] = from previously published data; cited from earlier work
[3] = from previously published data; cited from earlier work; remark: listed apart in the source

| Compound | Efficacy in a mouse model of spasticity in multiple sclerosis [1] | CNS penetration [2] | Tolerability [3] |
| --- | --- | --- | --- |
| COc1ccc(Cl)cc1[C@]1(F)C(=O)Nc2cc(C(F)(F)F)ccc21 [BMS 204352, (3S)-3-(5-chloro-2-methoxyphenyl)-3-fluoro-1,3-dihydro-6-(trifluoromethyl)-2H-Indol-2-one] | effective | CNS penetrant | well tolerated |
| O=c1[nH]c2cc(C(F)(F)F)ccc2n1-c1cc(C(F)(F)F)ccc1O [NS 1619, 1,3-dihydro-1-[2-hydroxy-5-(trifluoromethyl)phenyl]-5-(trifluoromethyl)-2H-benzimidazol-2-one] | – | CNS excluded | – |
